For this experiment, the target named is T1, TFEB (Homo sapiens, UniProt P19484).
T1 sequence (P19484 1-476): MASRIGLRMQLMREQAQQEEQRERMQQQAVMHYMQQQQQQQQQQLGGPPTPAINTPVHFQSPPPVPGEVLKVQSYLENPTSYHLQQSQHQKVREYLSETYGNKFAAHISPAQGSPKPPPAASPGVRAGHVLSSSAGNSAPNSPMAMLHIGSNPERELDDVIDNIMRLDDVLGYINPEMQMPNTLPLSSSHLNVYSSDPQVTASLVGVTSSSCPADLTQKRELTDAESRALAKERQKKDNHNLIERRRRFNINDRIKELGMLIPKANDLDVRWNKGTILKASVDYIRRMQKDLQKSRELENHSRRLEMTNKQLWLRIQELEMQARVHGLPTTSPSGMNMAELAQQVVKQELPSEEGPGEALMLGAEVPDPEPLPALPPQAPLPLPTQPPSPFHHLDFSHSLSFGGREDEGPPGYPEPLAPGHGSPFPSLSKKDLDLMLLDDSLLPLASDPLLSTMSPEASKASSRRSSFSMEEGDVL
In words: Tfeb-Translocation Assay HEK-293T-oEX-Tfeb-GFP Cell Line. The format is cell-based. The conditions noted are these: HEK-293T-oEX-TFEB-GFP cells; translocation positive cells ratio; read-out: TFEB Translocation EC50. The procedure:
Tfeb-Translocation Assay HEK-293T-oEX-Tfeb-GFP Cell Line
• 1). Added 2×10^6 cell into a T75 flask with 15 mL DiVEM medium (with 10% FBS, 1% PS, 1×GLUTAMAX, 1×MEM NEAA, 1×HEPES Buffer Solution and 5 ug/mL blasticidin). • 2). Culturing for 48-72 hours. Cells in logarithmic growth phase were taken for experiment. The other cells were passaged as described in step 1. • 3). Seeded 1×10^4 cells/30 μL/well into 384-well plate (BD 356663). Cultured overnight at 37° C. & 5% CO2 incubator. • 4). Note: Used cells <10 passage
• 1). Compounds were firstly diluted by DMSO to the stock needed (10 mM), and aliquoted and stored at −20° C. • 2). Took one aliquot each time and made 3-fold or 2-fold dilutions as indicated, total 10 doses plus one DMSO control well in the source plate. • 3). Added 150 or 90 nL/well compounds solution to the assay plate by ECHO and incubated for 6 or 18 hours respectively at 37° C. & 5% CO2 incubator.
• 1). Added 30 uL 8% PFA into the wells and incubated 20 min at room temperature. • 2). Discarded the medium, washed the wells twice with DPBS to eliminate foam and bubbles in the well.
• 1). Diluted Hoechest-333824 in DPBS to get 2 μg/mL solution and added 30 uL/well into assay plate, incubated at room temperature for 20 mins. • 2). Discarded the supernatant, washed the wells twice with DPBS to eliminate foam and bubbles in the well. Then added DPBS 20 uL/well.
3). Scanned Plate by Operetta.
• 1). Reference compound: Torin 1 • 2). Test compounds: C1, C2, C3, C4, C5, C6. • 3). Diluted compounds in 384 LDV-dilution plate according to the dilution plate map • 4). Compounds starting concentration: Torin 1: 300 nM and Test compounds: 50 uM.
• 1). Selected all nucleus by Operetta as ‘All Cells’ • 2). Calculated the EGFP average intensity inside the Nucleus region. • 3). Selected population that the EGFP mean intensity inside the Nucleus region>background as the EGFP-positive cells • 4). Selected the Surrounding region of the nucleus and calculated the EGFP mean intensity of the region • 5). Inside the EGFP-positive cell population, selected the cells with EGFP mean intensity inside the Nucleus region/the EGFP mean intensity inside the surrounding region=1.2 (This ratio could be slightly adjusted from time to time) as the Translocation positive cell. • 6). Outputted the ratio of Translocation positive cell/EGFP-positive cells as the Translocation Positive Ratio. • 7). Each time set the ratio of DMSO group (Control Group) as ˜15% and then normalized the compound group to the DMSO group.
As a reminder, the EC50 is the concentration at which the effect is half-maximal. Take “6-benzyl-2-methyl-N-((4-methyloxazol-2-yl)methyl)-5-oxo-5,6-dihydro-1,6-naphthyridine-3-carboxamide [Example 66]”: the EC50 is 100 to 1000 nM.

Regarding `Cc1nc2ccn(Cc3cccnc3)c(=O)c2cc1C(=O)NCc1ccc(Cl)cc1` [Comparator 1, reference compound], the EC50 is 1000 to 10000 nM.

Take `Cc1ccc(CNC(=O)c2cc3c(=O)n(Cc4ccc(F)cn4)ccc3nc2C)o1` [Example 2, 6-((5-fluoropyridin-2-yl)methyl)-2-methyl-N-((5-methylfuran-2-yl)methyl)-5-oxo-5,6-dihydro-1,6-naphthyridine-3-carboxamide]: the EC50 was 100 to 1000 nM.

`Cc1cnc(CNC(=O)c2cc3c(=O)n(Cc4ccccc4)ccc3nc2C)o1` [Example 3, 6-benzyl-2-methyl-N-((5-methyloxazol-2-yl)methyl)-5-oxo-5,6-dihydro-1,6-naphthyridine-3-carboxamide]: the EC50 lay within 100 to 1000 nM.

Regarding `Cc1ncc(CNC(=O)c2cc3c(=O)n(Cc4ccccc4)ccc3nc2C)o1` [Example 4, 6-benzyl-2-methyl-N-((2-methyloxazol-5-yl)methyl)-5-oxo-5,6-dihydro-1,6-naphthyridine-3-carboxamide], the 50% effective concentration (EC50) lay within 100 to 1000 nM.

With `Cc1nc2ccn(Cc3ccccc3)c(=O)c2cc1C(=O)NCc1cn(C)nn1` [Example 8, 6-benzyl-2-methyl-N-((1-methyl-11H-1,2,3-triazol-4-yl)methyl)-5-oxo-5,6-dihydro-1,6-naphthyridine-3-carboxamide], the EC50 was 1000 to 10000 nM.

In the case of `Cc1nc2ccn(Cc3ccccc3)c(=O)c2cc1C(=O)NCc1cnn(C)n1` [Example 9, 6-benzyl-2-methyl-N-((2-methyl-2H-1,2,3-triazol-4-yl)methyl)-5-oxo-5,6-dihydro-1,6-naphthyridine-3-carboxamide], the EC50 was 100 to 1000 nM.

As for `Cc1noc(CNC(=O)c2cc3c(=O)n(Cc4ccccc4)ccc3nc2C)n1` [Example 10, 6-benzyl-2-methyl-N-((3-methyl-1,2,4-oxadiazol-5-yl)methyl)-5-oxo-5,6-dihydro-1,6-naphthyridine-3-carboxamide], the EC50 lay in the range of 100 to 1000 nM.

`Cc1nc2ccn(CC3CCCO3)c(=O)c2cc1C(=O)NCc1ccc(Cl)cc1` (stereo not shown) [Example 11, N-(4-chlorobenzyl)-2-methyl-5-oxo-6-((tetrahydrofuran-2-yl)methyl)-5,6-dihydro-1,6-naphthyridine-3-carboxamide]: the concentration for a half-maximal effect (EC50) fell in the range of 1000 to 10000 nM.

Regarding `Cc1nc2ccn(Cc3ccccc3)c(=O)c2cc1C(=O)NCc1ccncc1` [Example 12, 6-benzyl-2-methyl-5-oxo-N-(pyridin-4-ylmethyl)-5,6-dihydro-1,6-naphthyridine-3-carboxamide], the EC50 is 1000 to 10000 nM.

`Cc1nnc(CNC(=O)c2cc3c(=O)n(Cc4ccccc4)ccc3nc2C)o1` [Example 13, 6-benzyl-2-methyl-N-((5-methyl-1,3,4-oxadiazol-2-yl)methyl)-5-oxo-5,6-dihydro-1,6-naphthyridine-3-carboxamide]: the EC50 is 1000 to 10000 nM.

Regarding `Cc1nc2ccn(Cc3ccccc3)c(=O)c2cc1C(=O)NCc1ccn(C)n1` [Example 14, 6-benzyl-2-methyl-N-((1-methyl-1H-pyrazol-3-yl)methyl)-5-oxo-5,6-dihydro-1,6-naphthyridine-3-carboxamide], the EC50 lay within 100 to 1000 nM.

Turning to `Cc1nc2ccn(Cc3ccccc3)c(=O)c2cc1C(=O)NCc1cnn(C)c1` [Example 15, 6-benzyl-2-methyl-N-((1-methyl-1H-pyrazol-4-yl)methyl)-5-oxo-5,6-dihydro-1,6-naphthyridine-3-carboxamide], the EC50 is 100 to 1000 nM.

Turning to `Cc1nc2ccn(Cc3ccccc3)c(=O)c2cc1C(=O)NCc1ccccc1F` [Example 16, 6-benzyl-N-(2-fluorobenzyl)-2-methyl-5-oxo-5,6-dihydro-1,6-naphthyridine-3-carboxamide], the EC50 was in the range of 100 to 1000 nM.

Turning to `Cc1nc(CNC(=O)c2cc3c(=O)n(Cc4ccccc4)ccc3nc2C)no1` [Example 19, 6-benzyl-2-methyl-N-((5-methyl-1,2,4-oxadiazol-3-yl)methyl)-5-oxo-5,6-dihydro-1,6-naphthyridine-3-carboxamide], the EC50 is 1000 to 10000 nM.

On to `COCCn1ccc2nc(C)c(C(=O)NCc3ccc(Cl)cc3)cc2c1=O` [Example 20, N-(4-chlorobenzyl)-6-(2-methoxyethyl)-2-methyl-5-oxo-5,6-dihydro-1,6-naphthyridine-3-carboxamide], for which the EC50 lay within 1000 to 10000 nM.

For `COCCn1ccc2nc(C)c(C(=O)NCc3cnc(C)o3)cc2c1=O` [Example 21, 6-(2-methoxyethyl)-2-methyl-N-((2-methyloxazol-5-yl)methyl)-5-oxo-5,6-dihydro-1,6-naphthyridine-3-carboxamide], the half-maximal effective concentration (EC50) is ≥ 10000 nM.

As for `Cc1nc2ccn(Cc3ccccc3)c(=O)c2cc1C(=O)NCc1ccc(Cl)cc1` [Example 22, 6-benzyl-N-(4-chlorobenzyl)-2-methyl-5-oxo-5,6-dihydro-1,6-naphthyridine-3-carboxamide], the EC50 is < 100 nM.

Consider `Cc1nc2ccn(Cc3ccccc3)c(=O)c2cc1C(=O)NCc1cccnc1` [Example 23, 6-benzyl-2-methyl-5-oxo-N-(pyridin-3-ylmethyl)-5,6-dihydro-1,6-naphthyridine-3-carboxamide], for which the concentration giving a half-maximal response (EC50) was in the range of 100 to 1000 nM.

`COc1ccc(CNC(=O)c2cc3c(=O)n(Cc4ccccc4)ccc3nc2C)cc1` [Example 24, 6-benzyl-N-(4-methoxybenzyl)-2-methyl-5-oxo-5,6-dihydro-1,6-naphthyridine-3-carboxamide]: the EC50 was in the range of 1000 to 10000 nM.

Regarding `Cc1nc2ccn(Cc3ccccc3)c(=O)c2cc1C(=O)NCc1ccc(C(F)(F)F)cc1` [Example 25, 6-benzyl-2-methyl-5-oxo-N-(4-(trifluoromethyl)benzyl)-5,6-dihydro-1,6-naphthyridine-3-carboxamide], the EC50 was ≥ 10000 nM.

Regarding `Cc1nc2ccn(CC3CCCCO3)c(=O)c2cc1C(=O)NCc1ccc(Cl)cc1` (stereo not shown) [Example 26, N-(4-chlorobenzyl)-2-methyl-5-oxo-6-((tetrahydro-2H-pyran-2-yl)methyl)-5,6-dihydro-1,6-naphthyridine-3-carboxamide], the concentration for a half-maximal effect (EC50) was in the range of 100 to 1000 nM.

Take `Cc1nc2ccn(CC3CCO3)c(=O)c2cc1C(=O)NCc1ccc(Cl)cc1` (stereo not shown) [Example 27, N-(4-chlorobenzyl)-2-methyl-6-(oxetan-2-ylmethyl)-5-oxo-5,6-dihydro-1,6-naphthyridine-3-carboxamide]: the EC50 was in the range of 1000 to 10000 nM.

On to `Cc1nc2ccn(Cc3ccccc3)c(=O)c2cc1C(=O)NC(C)c1ccccn1` (stereo not shown) [Example 28, 6-benzyl-2-methyl-5-oxo-N-(1-(pyridin-2-yl)ethyl)-5,6-dihydro-1,6-naphthyridine-3-carboxamide], for which the EC50 was ≥ 10000 nM.

In the case of `Cc1nc2ccn(Cc3ccccc3)c(=O)c2cc1C(=O)NCc1ncccn1` [Example 29, 6-benzyl-2-methyl-5-oxo-N-(pyrimidin-2-ylmethyl)-5,6-dihydro-1,6-naphthyridine-3-carboxamide], the EC50 was ≥ 10000 nM.

For `COCCn1ccc2nc(C)c(C(=O)NCc3ccccn3)cc2c1=O` [Example 30, 6-(2-methoxyethyl)-2-methyl-5-oxo-N-(pyridin-2-ylmethyl)-5,6-dihydro-1,6-naphthyridine-3-carboxamide], the EC50 fell in the range of 1000 to 10000 nM.

Take `Cc1nc2ccn(Cc3ccccc3)c(=O)c2cc1C(=O)NCc1cnccn1` [Example 32, 6-benzyl-2-methyl-5-oxo-N-(pyrazin-2-ylmethyl)-5,6-dihydro-1,6-naphthyridine-3-carboxamide]: the EC50 was in the range of 100 to 1000 nM.

With `Cc1nc2ccn(Cc3ccccc3)c(=O)c2cc1C(=O)NCc1cccnn1` [Example 33, 6-benzyl-2-methyl-5-oxo-N-(pyridazin-3-ylmethyl)-5,6-dihydro-1,6-naphthyridine-3-carboxamide], the EC50 is 1000 to 10000 nM.

The values are drawn from patent publication US20250281483A1, “TRANSCRIPTION FACTOR EB ACTIVATORS AND USES THEREOF” (Astellas Engineered Small Molecules US, Incorporated, priority 2022, published 2025).
